Data from US7700644B2, “Isoflavonoid dimers” (Novogen Research Pty Ltd, priority 2005, dated 2010).

Experiments:
[1] = system: TNFα synthesis; experiment: TNFα synthesis in human monocytes incubated with LPS; format: cell-based; settings: LPS 200 ng/mL, 18 hrs
Method: (§1) Human peripheral blood monocytes (from three separate individuals) were isolated from buffy coats by lymphoprep gradient separation of mononuclear cells followed by counter-current centrifugal elutriation (Demasi et al. 2000). The test compounds were dissolved in DMSO and added to fresh monocytes After 30 min, LPS was added to achieve a final concentration of 200 ng/mL. After incubation for 18 hrs at 37° C. in 5% CO2, supernatants were removed and PGE2, TXB2 (the stable hydrolysis product of TXA2) and TNFα production were measured by radioimmunoassay (RIA).

[2] = system: thoracic aorta; experiment: Aortic ring contractility induced by noradrenaline; set-up: species or system Male Sprague-Dawley rats; settings: in presence of Cpd. 2 1 μg/ml; 1.94±0.35 vs. 2.09±0.23, p>0.05, no effect; n=6 rings
Method: Male Sprague-Dawley rats (250±50 g) were euthanased with 80% CO2 and 20% O2. The thoracic aorta was excised and quickly mounted in organ-baths as described (Chin-Dusting et al, 2001). Full concentration-contractile curves were obtained to noradrenaline ([…]) in the absence and presence of Cpd. 2 (1 μg/ml). Experiments were repeated in n=6 different rings from 6 different animals.

[3] = system: RPMI-8226 (Leukemic); experiment: In vitro cytotoxicity, MTT proliferation assay, RPMI-8226; format: cell-based; settings: Homo sapiens; Leukemic RPMI-8226
Method: The human pancreatic cancer cell line, HPAC (CRL-2119) was routinely cultured in 1:1 mixture DMEM (Sigma) plus Ham's F12 (Sigma) medium containing HEPES (15 mM), insulin (0.002 mg/ml), transferrin (0.005 mg/ml), hydrocortisone, (40 ng/ml), epidermal growth factor (10 ng/ml). The ovarian cancer cell line CP70 was obtained as a gift from Dr. Gil Mor (Yale University) and cultured in a 1:1 mixture DMEM plus Ham's F12 medium, and SKOV-3 was purchased from ATCC and cultured in McCoy's 5a medium. The breast cancer cell line MDA-MB-468 cultured in Leibovitz's L-15 medium.
All cultures were supplemented with 10% FCS(CSL, Australia), penicillin (100 U/ml), streptomycin ([…]), L-glutamine (2 mM) and sodium bicarbonate (1.2 g/L), and cultured at 37° C. in a humidified atmosphere of 5% CO2. All remaining cell lines were purchased from ATCC (Maryland, USA) except where noted.
IC50 values were determined for each cell line. Cells were seeded in 96-well plates at an appropriate cell density as determined from growth kinetics analysis. […] Cell proliferation was assessed after the addition of 20 μl of 3-4,5 dimethylthiazol-2,5-diphenyl tetrazolium bromide (MTT, 2.5 mg/ml in PBS, Sigma) for 3-4 hrs at 37° C. according to manufacturer's instructions. IC50 values were calculated from semi-log plots of % of control proliferation on the y-axis against log dose on the x-axis.

[4] = system: TXB2 synthesis; experiment: TXB2 synthesis in human monocytes incubated with LPS; format: cell-based; settings: LPS 200 ng/mL, 18 hrs, dose responsive
Method: as §1

[5] = system: HCT-15 (Colorectal) cells; experiment: Chemosensitisation, combination with antineoplastic agent, HCT-15; format: cell-based, human
Method: The utility of the dimeric compounds of the invention to act as a chemosensitiser when used in combination with an array of standard chemotherapeutic agents was assessed. Dimeric Cpd. 2 was applied to various colorectal and pancreatic cancer cell lines to investigate its synergy with standard chemotherapeutic agents including cisplatin, gemcitabine, paclitaxel, doxorubicin, camptothecin and topotecan.
The experiment as outlined in SOP-BD011 (Versions A and B) was used to screen three antineoplastic agents against a given cell line in any ‘one’ experiment (see for example Kanzawa et al., (1997)). The inherent design of the experiment allowed for three sequences of Cpd. 2 and an antineoplastic agent. • 1) Direct Sequence—Cells are treated with both Cpd. 2 and a single antineoplastic agent (combined) for 5 days. • 2) Cpd. 2 First (Forward) Sequence—Cells are treated for 24 hours with Cpd. 2 before replacing with a 24 hour antineoplastic agent treatment; drugs are then washed out and processed on Day 5. • 3) Reverse Sequence—The reverse order to experiment No. 2 above. i.e. a cytotoxin first sequence Results and Conclusions
All data was evaluated using the formulae of theoretic additivity incorporated into a three dimensional model, as described by Kanzawa et al. (1997). This allows for simple data interpretation as values in excess of 10% are defined as ‘synergistic’ (depicted in grey) whilst those below −10% are defined as ‘antagonistic’ (depicted in black).

[6] = system: ear swelling in mice induced by the topical application of arachidonic acid (AA); experiment: Murine ear inflammation induced by arachidonic acid; format: in vivo, Female BALB/c mice
Method: Compound 2 was examined for its ability to inhibit ear swelling in mice induced by the topical application of arachidonic acid (AA). The inflammatory response due AA, the immediate precursor of the eicosanoids, is due to formation of AA metabolites via both the cyclooxygenase (COX) and lipoxygenase (LOX) pathways (Young et al. 1984). AA induces an early (10-15 min) increase in both PGE2 and LTC4 synthesis which precedes the increase in ear thickness (Opas et al. 1985; Chang et al. 1986).
Female BALB/c mice (ARC, WA, Australia), weighing 15-21 g were injected with Compound 2 delivered in polyethylene glycol (PEG) 400:phosphate buffered saline (PBS) 1:1 intraperitoneally (i/p) at a dose of 25 mg/kg 30 min prior to the application of AA being to the ears. Mice were anaesthetised using isoflurane and baseline thickness of both ears was measured using a spring micrometer. Each mouse received a total of […] of AA in ethanol (50 mg/ml) applied to the inner and outer surfaces of each pinna (i.e. 0.5 mg AA or 2 μg PMA per ear). […]
The difference in ear swelling pre- and post-application of AA for each ear was calculated, and the average for the two ears of each mouse calculated. The difference in mean swelling of each test group compared to the group given vehicle alone was calculated using a two-tailed unpaired t test (Prism 4, GraphPad Software).

`COc1ccc(C23COc4c(ccc(O)c4C)C2C2c4ccc(O)c(C)c4OCC2c2cc(OC)c(OC)cc23)cc1OC` (stereo not shown) [Cpd. 2, 4,9-Dihydroxy-14,15-dimethoxy-12a-(3′,4′-dimethoxyphenyl)-3,10-dimethyl-2,11-dioxa-(1H,12H)-6b,6c,12a,16b-tetrahydronaphtho[1,2-g]chrysene] was tested, and the “effect on induction of TNFα” value [1] was “inhibited”, the “maximal contractile response to noradrenaline” value [2] was 2.09±0.23 and the IC50 [3] was 15.2 µM. For the same molecule, the “effect on TXB2 synthesis” value [4] was “inhibited”, the “synergy with Doxorubicin” value ([5]; combination (A)) was “strong synergistic cytotoxicity” and the “synergy with Paclitaxel” value ([5]; combination treated group (A)) was “no synergy”. For the same molecule, the “synergy with Paclitaxel” value ([5]; forward (B) and reverse (C) 24 hour sequences, Cpd. 2 1 μM and 2 μM) was “strong synergy”, the “synergy with Doxorubicin” value ([5]; forward (B) or reverse (C) sequences) was “No synergy” and the “Change in ear thickness (mean ± SD, ×0.01 mm)” value ([6]; 25 mg/kg i/p 30 min prior to AA, 1 hr post-AA, vehicle 14.5 ± 4.7) was 5.1 ± 1.7 ×0.01 mm. The “ear thickness compared with vehicle alone” value ([6]; 25 mg/kg i/p, AA-induced) was “significant reduction”.
